What all share (format): cell-based, Mycobacterium tuberculosis
Experiment [1] deals with 33 isolates of M. tuberculosis. The following applies: for need for drug pre-treatment prior to phage incubation: Tb inoculum and phage added simultaneously, significant ΔCt in 24 hour.
The subject of experiment [2] is M. tuberculosis isolates.
Experiment [3] has as its system M. tuberculosis in smear positive sputum sediments. The following applies: total 22 sediments.
Experiment [4] relates to M. tuberculosis isolates. This is another data set of the same source.
Experiment [5] relates to M. tuberculosis H37Rv (ATCC 27294). Kind of experiment: D29 phage-qPCR assay development on H37Rv. The following applies: for duration of drug treatment at which qPCR Ct became clearly disparate from control: drug treatment followed by 24 h phage incubation, FIG. 1D. Background: Real-time PCR tracks product formation cycle by cycle.
Setting [6] is: strains confirmed as drug susceptible by agar proportion.

Where a name gives a salt, the structure may show the parent alone. Read-outs that look alike come from different tables or passages of the source.

With capreomycin sulfate, the “need for drug pre-treatment prior to phage incubation” value (“need for drug pre-treatment prior” for short) in experiment [1] is “no pre-treatment was required”. Moreover, in experiment [1] (listed as CAP), the “D29 phage assay susceptible (n isolates)” value is 30. The “Agar proportion susceptible (n isolates)” value in experiment [2] (listed as CAP) is 31.

For `Nc1ccc(C(=O)O)c(O)c1` [para-aminosalicylic acid], the “duration of drug treatment of Tb prior to 24 hours of phage incubation yielding optimal ΔCt” value in experiment [1] (setting [6]) was 48 h.

On to `[H]/N=C(/N)N[C@H]1[C@H](O)[C@@H](O)[C@H](O[C@@H]2O[C@@H](C)[C@](O)(C=O)[C@H]2O[C@@H]2O[C@@H](CO)[C@H](O)[C@@H](O)[C@@H]2NC)[C@@H](N/C(N)=N\[H])[C@@H]1O` [Streptomycin, streptomycin sulfate], for which, in experiment [1], the “need for drug pre-treatment prior” value was “no pre-treatment was required”. Besides, in experiment [3] (sediment phage assay result R), the “Culture R (n samples)” value was 1 and the “Culture S (n samples)” value is recorded as 0. Moreover, in experiment [3] (sediment phage assay result S), the “Culture R (n samples)” value turned out to be 1 and the “Culture S (n samples)” value is reported as 20. Moreover, in experiment [4] (phage assay result R), the “Agar proportion R (n isolates)” value was 16 and the “Agar proportion S (n isolates)” value was 0. Also, in experiment [4] (phage assay result S), the “Agar proportion R (n isolates)” value is on record as 3 and the “Agar proportion S (n isolates)” value came out at 135.

As for `CC[C@@H](CO)NCCN[C@@H](CC)CO` [Ethambutol, ethambutol hydrochloride], in experiment [1] (listed as EMB, hydrochloride), the “D29 phage assay susceptible (n isolates)” value amounted to 12. The “duration of drug treatment of Tb prior to 24 hours of phage incubation yielding optimal ΔCt” value in experiment [1] (setting [6]) worked out at 48 h. For the same compound, the “Culture R (n samples)” value in experiment [3] (sediment phage assay result R) and in experiment [3] (sediment phage assay result S) was 0 each time. Besides, the “Culture S (n samples)” value in experiment [3] (sediment phage assay result R) was determined as 0; in experiment [3] (sediment phage assay result S), 22. Also, the “Agar proportion R (n isolates)” value in experiment [4] (phage assay result R) is recorded as 0; in experiment [4] (phage assay result S), 8. Moreover, the “Agar proportion S (n isolates)” value is on record as 1 in experiment [4] (phage assay result R) and 145 in experiment [4] (phage assay result S). Besides, in experiment [2] (listed as EMB, hydrochloride), the “Agar proportion susceptible (n isolates)” value worked out at 12.

On to `NNC(=O)c1ccncc1` [Isoniazid, isoniazid], for which the “number of phage / real-time PCR Ct value after drug pre-treatment” value in experiment [5] is reported as “the number of phage did not increase/Ct value did not decrease”. The “need for drug pre-treatment prior” value in experiment [5] (H37Rv, FIG. 1E, 48 h superior to 24 h, 6 h and 3 h) is listed as “pre-treatment was required”. The “duration of drug treatment at which qPCR Ct became clearly disparate from control” value in experiment [5] (H37Rv) worked out at 48 h. Moreover, in experiment [3] (sediment phage assay result R), the “Culture R (n samples)” value came out at 1 and the “Culture S (n samples)” value amounted to 3. For the same compound, in experiment [3] (sediment phage assay result S), the “Culture R (n samples)” value worked out at 0 and the “Culture S (n samples)” value came to 18. Also, in experiment [4] (phage assay result R), the “Agar proportion R (n isolates)” value came out at 22 and the “Agar proportion S (n isolates)” value is listed as 9. In addition, in experiment [4] (phage assay result S), the “Agar proportion R (n isolates)” value was determined as 5 and the “Agar proportion S (n isolates)” value turned out to be 118.

For the compound `CO[C@H]1/C=C/O[C@@]2(C)Oc3c(C)c(O)c4c(O)c(c(/C=N/N5CCN(C)CC5)c(O)c4c3C2=O)NC(=O)/C(C)=C\C=C\[C@H](C)[C@H](O)[C@@H](C)[C@@H](O)[C@@H](C)[C@H](OC(C)=O)[C@@H]1C` [Rifampin, rifampin], the “D29 phage assay susceptible (n isolates)” value in experiment [1] (listed as RIF) came out at 11. In experiment [5], the “number of phage / real-time PCR Ct value after drug pre-treatment” value was “the number of phage did not increase/Ct value did not decrease” and the “ΔCtRIF (Ct control−Ct drug)” value is listed as −12. The ΔCt entry in experiment [5] (H37Rv pre-treated with drug for 72 hours, FIG. 1B) is on record as “approximately −5”. Further, the “duration of drug treatment at which qPCR Ct became clearly disparate from control” value in experiment [5] (H37Rv) is reported as 24 h. In experiment [3] (sediment phage assay result R), the “Culture R (n samples)” value is recorded as 1 and the “Culture S (n samples)” value is listed as 0. Also, in experiment [3] (sediment phage assay result S), the “Culture R (n samples)” value was 0 and the “Culture S (n samples)” value is 21. For the same compound, in experiment [4] (phage assay result R), the “Agar proportion R (n isolates)” value was determined as 5 and the “Agar proportion S (n isolates)” value is reported as 2. Besides, in experiment [4] (phage assay result S), the “Agar proportion R (n isolates)” value is 5 and the “Agar proportion S (n isolates)” value is 142. For the same compound, the “Agar proportion susceptible (n isolates)” value in experiment [2] (listed as RIF) was 11.

Turning to `CC(=O)NC[C@H]1CN(c2ccc(N3CCOCC3)c(F)c2)C(=O)O1` [Linezolid, linezolid], the “need for drug pre-treatment prior” value in experiment [1] was “no pre-treatment was required”.

For the compound `N[C@@H]1CON=C1O` [Cycloserine, D-cycloserine], the “need for drug pre-treatment prior” value in experiment [1] is “no pre-treatment was required”.

Consider `NCC[C@H](O)C(=O)N[C@@H]1C[C@H](N)[C@@H](O[C@H]2O[C@H](CN)[C@@H](O)[C@H](O)[C@H]2O)[C@H](O)[C@H]1O[C@H]1O[C@H](CO)[C@@H](O)[C@H](N)[C@H]1O` [Amikacin, amikacin], for which the “need for drug pre-treatment prior” value in experiment [1] is given as “no pre-treatment was required”. For the same compound, the “D29 phage assay susceptible (n isolates)” value in experiment [1] (listed as AMK) amounted to 31. The “Agar proportion susceptible (n isolates)” value in experiment [2] (listed as AMK) was 31.

In the case of `CCc1cc(C(N)=S)ccn1` [Ethionamide, ethionamide], the “duration of drug treatment of Tb prior to 24 hours of phage incubation yielding optimal ΔCt” value in experiment [1] was 48 h.

For the origin of these results see patent US20140256664A1, “COMPOSITIONS AND METHODS FOR A MYCOBACTERIUM TUBERCULOSIS DRUG SUSCEPTIBILITY TEST” (priority 2011, published 2014).
